According to US5756291A, “Aptamers specific for biomolecules and methods of making” (priority 1995, dated 1998):
Where “and” joins values, the source holds several entries; their conditions need not be identical. Equal entries are not always repeated.

Legend:
[1] = test system: Plasmin; experiment: Filter binding specificity assay (Table 11), plasmin; design: dose or concentration left out as unconfirmed
Procedure: (§1) Briefly, radiolabeled aptamer DNA at about a concentration of about 1 nM was incubated with the indicated protein for several minutes at room temperature, followed by filtration of the aptamer-protein mixture through a nitrocellulose filter. The filter was washed with 3 mL of selection buffer and then radioactivity bound to the filters was determined as a % of input radioactivity. Binding data is shown for both unselected 96-mer DNA and for two separate experiments with clone #29 96-mer. All proteins were tested at about 1M concentration except human serum albumin which was used at 100M.

[2] = test system: thrombin; experiment: Filter binding specificity assay (Table 11), thrombin; conditions: DNA about 1 nM
Procedure: as §1

[3] = test system: Trypsin; experiment: Filter binding specificity assay (Table 11), trypsin; design: dose or concentration left out as unconfirmed
Procedure: as §1

[4] = test system: TPA; experiment: Filter binding specificity assay (Table 11), TPA; conditions: TPA about 1 µM
Procedure: as §1

[5] = test system: human serum albumin; experiment: Filter binding specificity assay (Table 11), albumin; conditions: human serum albumin 100 µM; listed as Clone 29 DNA
Procedure: as §1

[6] = test system: Kallikrein; experiment: Filter binding specificity assay (Table 11), kallikrein; conditions: Kallikrein about 1 µM
Procedure: as §1

[7] = biological target: thrombin; experiment: Nitrocellulose filter binding, dissociation constant for thrombin; design: species or system human
Procedure: Filter binding assays using aptamer DNA from 14 of the clones were used to determine the dissociation constants (KD) for thrombin as follows: Thrombin concentrations between […] and 1 nM were incubated at room temperature in selection buffer for 5 minutes in the presence of […] of radiolabeled 96-mer derived from cloned Round 5 aptamer DNA. After incubation, the thrombin and aptamer mixture was applied to nitrocellulose filters (0.2 micron, 2.4 cm diameter) that were pretreated with salmon sperm DNA (1 mg/ml DNA in selection buffer) and washed twice with 1 ml selection buffer. After application of thrombin mixture, the filters were washed three times with 1 ml selection buffer. The radioactivity retained on the filters was then determined. KD values for the individual clones ranged from 50 to >2000 nM.
One of these two clones (#17) and the original unselected pool was analyzed for thrombin binding by nitrocellulose filter assay described above using DNA labeled with ^32 P to permit analysis of thrombin binding characteristics. The labeled DNA was synthesized by PCR and contained 5-(1-pentynyl)-2'-deoxyuridine in order to retain the original selected DNA structures. The DNA was incubated with thrombin at various concentrations between 10 nM and 10M to obtain the KD values for thrombin binding. The KD of the unselected pool was […] while the KD of clone 17 was 400 nM. […]

[8] = test system: Chymotrypsin; experiment: Filter binding specificity assay (Table 11), chymotrypsin; conditions: Chymotrypsin about 1 µM
Procedure: as §1

[9] = test system: Prothrombin; experiment: Filter binding specificity assay (Table 11), prothrombin; design: dose or concentration left out as unconfirmed; conditions: listed as Clone 29 DNA
Procedure: as §1

[10] = test system: thrombin; experiment: Clotting time, thrombin-catalyzed conversion of fibrinogen to fibrin; assay type: biochemical; conditions: thrombin 10 nM
Procedure: Clotting time for the thrombin-catalyzed conversion of fibrinogen (2.0 mg/ml in selection buffer) to fibrin at 37 C. was measured using a precision coagulation timer apparatus (Becton-Dickinson, Cat. nos. 64015, 64019, 64020). Thrombin (10 nM) incubated with fibrinogen alone clotted in 40 sec, thrombin incubated with fibrinogen and P1 nuclease (Boehringer-Mannheim, Indianapolis, Ind.) clotted in 39 sec, thrombin incubated with fibrinogen and aptamer clone #5 (200 nM) clotted in 115 sec, and thrombin incubated with fibrinogen, clone #5 (200 nM) and […] clotted in 40 sec. All incubations were carried out at 37 C. using reagents prewarmed to 37 C. Aptamer DNA or, when present, P1 nuclease, was added to the fibrinogen solution prior to addition of thrombin.

[11] = test system: ancrod; experiment: Ancrod fibrinogen clotting assay; assay type: biochemical
Procedure: The thrombin 21-mer ancrod assay was conducted as follows. Ancrod was suspended in sterile water at a concentration of 44 U/mL. 10 L ancrod solution was added to 95 L of selection buffer prewarmed to 37 C. 100 L of this mixture was transferred to the coagulation cup of the fibrometer described above, followed by addition of 200 L of fibrinogen and 20 L of 21-mer DNA (both prewarmed to 37 C). TE buffer pH 7.0 was used as a control lacking DNA. The control clot time was 25 seconds while the clot time in the presence of 500 nM 21-mer was 24 seconds and was 26 seconds in the presence of 33M 21-mer.

[12] = test system: thrombin; experiment: Thrombin inhibition Ki; assay type: biochemical; conditions: Table 7
Source text: The binding affinity of the aptamers herein with respect to targets and other molecules is defined in terms of Kd. The value of this dissociation constant can be determined directly by well-known methods, and can be computed even for complex mixtures by methods such as those, for example, set forth in Caceci, M., et al., Byte (1984) 9:340-362. It has been observed, however, that for some small oligonucleotides, direct determination of Kd is difficult, and can lead to misleadingly high results. Under these circumstances, a competitive binding assay for the target molecule or other candidate substance may be conducted with respect to substances known to bind the target or candidate. The value of the concentration at which 50% inhibition occurs (Ki) is, under ideal conditions, equivalent to Kd. However, in no event can Ki be less than Kd. Thus, determination of Ki, in the alternative, sets a maximal value for the value of Kd. Under those circumstances where technical difficulties preclude accurate measurement of Kd, measurement of Ki can conveniently be substituted to provide an upper limit for Kd.
Independent verification of the Ki for the nonmodified 15-mer was made by determining the extent of thrombin inhibition with varying DNA concentration.

[13] = test system: thrombin; experiment: Prothrombin time test (PT) after intravenous aptamer in monkeys; assay type: in vivo, cynomologous monkeys; conditions: high dose infusion 0.5 mg/kg/min
Procedure: Two thrombin aptamers were administered to adult male cynomologous monkeys. Unsubstituted 15-mer DNA with the sequence 5' GGTTGGTGTGGTTGG 3' and an analog, 5' GGTTGGTGTGGTT*G*G 3', containing thioate internucleotide linkages at the indicated positions were used. Aptamer was delivered as an intravenous bolus or infusion and then blood samples were withdrawn at various times after delivery of the bolus or during and after infusion. The catheter was heparinized after the 10 minute timepoint. The animals were not systematically heparinized.
Thrombin inhibition was measured by a prothrombin time test (PT) using a commercially available kit, reagents and protocol (Sigma Diagnostics, St. Louis, catalog Nos. T 0263 and 870-3). Inhibition of thrombin was indicated by an increased clot time compared to the control in the PT test. Clot times were obtained by withdrawing a sample of blood, spinning out red cells and using the plasma in the PT test. Control thrombin PT clot time values were obtained several minutes prior to administration of aptamer. Briefly, the PT assay was conducted using 0.1 mL of monkey plasma prewarmed to 37 C. and 0.2 mL of a 1:1 mixture of thromboplastin (used according to manufacturers instructions) and CaCl2 (25 mM), also prewarmed to 37 C. Thrombin clot times were measured with a fibrometer as described above. […]

[14] = test system: human blood; experiment: Extracorporeal hemodialysis circuit blood coagulation; conditions: heparin 1 U/mL
Procedure: A bolus of 15-mer DNA was delivered to human blood at 37 C. to give an aptamer concentration of 10M. The blood was contained in an extracorporeal hemodialysis circuit (Travenol, Model No. CA-90). Pressure proximal to the hemodialysis filter was monitored to determine the time after administration of aptamer that coagulation occurred. Blood coagulation was marked by a pressure increase from about 50 mm Hg observed with uncoagulated blood (blood flow rate 200 mL/min) to pressure of at least 400 mm Hg.

## 5' CGGGGAGAGGTTGGTGTGGTTGGCAATGGCTAGAGTAGTGAC GTTTTCGCGGTGAGGTCC 3' [Clone #29]
[1]
  % Bound: 15.0%
[2]; Control, no protein
  % Bound: 0%
[2]; Thrombin about 1 µM
  % Bound: 59.0%
[3]
  % Bound: < 0.5%
[4]
  % Bound: < 0.5%
[5]
  % Bound: 2.0% and < 0.5%
[6]
  % Bound: < 0.5%
[7]
  Kd: ~200 nM
[8]
  % Bound: < 0.5%
[9]
  % Bound: 11.0% and 9.5%

## 5' GGGGGTT 3' [reference compound]
[10]
  thrombin clotting time: 26 s

## 5' GGTTGGG 3'
[10]
  thrombin clotting time: 38 s

## 5' GGTTGGGCTGGTTGGGTTGGG 3' (chemistry not given here) [Compound 21-mer, 21-mer thrombin aptamer]
[11]; 500 nM 21-mer
  clot time: 24 s
[11]; 21-mer
  clot time: 26 s

## 5' GGTTGGTGTGGTT*G*G 3'
[12]
  Ki: 40 nM
[13]
  PT clot time during infusion: 2.5 to 2.7 times the control value

## G*G*T*T*G*G*T*G*T*G*G*T*T*G*G: 15-mer with all thioate linkages
[12]
  Ki: 280 nM

## GG(dU)TGGTGTGG(dU)TGG: 15-mer with uracil for thymine
[12]
  Ki: 80 nM

## GGTTGG(dU)G(dU)GGTTGG: 15-mer with uracil for thymine
[12]
  Ki: 15 nM

## GGTTGGTGTGGTTGG#G#T: closely related 17-mer with MEA linkages
[12]
  Ki: 35 nM

## GGTTGGTGTGGTU'GG: 15-mer with 5-(1-pentynyl)uracil
[12]
  Ki: 20 nM

## heparin
[14]
  time to blood coagulation in hemodialysis unit: > 80 min
